Experimental data reported in article PMC10376691, “Inhibition of Acetylcholinesterase and Amyloid-β Aggregation by Piceatannol and Analogs: Assessing In Vitro and In Vivo Impact on a Murine Model of Scopolamine-Induced Memory Impairment” (Antioxidants, 2023).
Entries after “also recorded” stand apart in the source; their conditions may differ. Where two headings read alike, the source gives them in different places.

What was measured:
[1] = test system: SH-SY5Y cells; assay: Cytotoxicity on SH-SY5Y cells (MTT); assay type: cell-based; conditions: 1, 2, 5 and 10 μM, MTT (Figure S1)
Experimental: The human SH-SY5Y neuroblastoma cell lines (CRL-2266, Lot No. 58979771) were purchased from American Type Culture Collection (Manassas, VA, USA) and used as models to investigate PIC and its analogs for neuroprotective activities against Aβ-induced cell deaths and the stimulation of neurite outgrowths. The SH-SY5Y cells were grown in DMEM/F-12 medium supplemented with 10% FBS at 37 °C under a humidified atmosphere and 5% CO2 [41]. […]. The SH-SY5Y cells (10,000 cells/well) were seeded and cultured in a DMEM/F-12 medium containing 10% FBS for 24 h at 37 °C under a humidified atmosphere and 5% CO2. […] The medium was then removed, and 40 μg/mL Aβ peptide (25–35) (dissolved in PBS) or an equal aliquot of PBS was added to the medium for another 24 h culture. The MTT was used to evaluate cell viability, and the absorbance at 570 nm was determined. The DMSO used instead of the sample solution was blank (recognized as 100%), and each treatment was expressed as relative cell viability (%). […] To measure cell viability and quantify the neurite outgrowths of the treated SH-SY5Y in a 96-well plate, the neurite outgrowth staining kit (a two-color fluorescence assay kit) was used, following a previous report or the protocol in the manufacturer’s manual (publication number: MAN0007224), which included a cell membrane-stained fluorescent dye (orange-red fluorescence), a cell viability indicator (green fluorescence), and a reagent for background masking. The fluorescence ratios of Ex555nm/Em565nm and Ex495nm/Em515nm were determined for the neurite outgrowths and the cell viabilities, respectively. […]
The following supporting information can be downloaded at: https://www.mdpi.com/article/10.3390/antiox12071362/s1. […] The MTT was used to evaluate cell viability, and the absorbance at 570 nm was determined. The DMSO used instead of the sample solution was blank (recognized as 100%), and each treatment was expressed as relative cell viability (%). […]

[2] = DPPH radical scavenging activity; conditions: 120 μM DPPH in methanol, 37 °C, 20 min
Experimental: DPPH radical scavenging activity was assayed following a previous report, with some modifications. […] DMSO was used instead of a sample solution in the blank group. […] The scavenging activity of the DPPH radical (%) was calculated with the following equation: (△A515blank − △A515sample) ÷ △A515blank × 100%. The IC50 of the DPPH radical scavenging activity of PIC and its analogs or that of Trolox was calculated from each linear equation by three test concentrations and their radical scavenging activities.

[3] = Neurite outgrowth and cell viability, two-color fluorescence assay kit; assay type: cell-based; conditions: human, 3-day or 6-day treatment, green fluorescence, read-out: cell viability relative to the control
Experimental: (§1) The SH-SY5Y cells were grown in DMEM/F-12 medium supplemented with 10% FBS at 37 °C under a humidified atmosphere and 5% CO2 [41]. […] The MTT was used to evaluate cell viability, and the absorbance at 570 nm was determined. The DMSO used instead of the sample solution was blank (recognized as 100%), and each treatment was expressed as relative cell viability (%). To study the stimulation of neurite outgrowth, the SH-SY5Y cells (5000 cells/well) were seeded on a 96-well plate pre-coated with poly-L-lysine and then cultured in the DMEM/F-12 medium containing 10% FBS overnight at 37 °C under a humidified atmosphere and 5% CO2. After being removed from the culture medium, each PIC, GNT, RHA, and isoRHA (at a final concentration of 10 μM in the 0.1%DMSO) or 0.1% DMSO (the control) was added to the DMEM/F-12 medium containing 10% FBS and refreshed every three days. On day 3 and day 6, each of the culture plates was photographed using an inverted microscope (ECLIPSE TS100, Nikon Instruments Inc., Tokyo, Japan). The culture medium was removed and washed with PBS, and the cultured cells in each well were fixed with 4% paraformaldehyde. To measure cell viability and quantify the neurite outgrowths of the treated SH-SY5Y in a 96-well plate, the neurite outgrowth staining kit (a two-color fluorescence assay kit) was used, following a previous report or the protocol in the manufacturer’s manual (publication number: MAN0007224), which included a cell membrane-stained fluorescent dye (orange-red fluorescence), a cell viability indicator (green fluorescence), and a reagent for background masking. […] The value for the control was recognized as 100%, and each treatment was expressed relative to the control.

[4] = test system: SH-SY5Y cells; assay: as above; assay type: cell-based; conditions: 10 μM; for stimulation of neurite outgrowths: 3-day or 6-day treatment, orange-red fluorescence, vs control; for total neurite lengths in living SH-SY5Y cells, fold of the control: calculated
Experimental: as §1

[5] = biological target: T1, Aβ peptide (1–42) (Homo sapiens, UniProt P05067); assay: biochemical
T1 construct: The Aβ peptide (1–42) was synthesized and purchased from Kelowna International Scientific Inc; purchased Kelowna International Scientific Inc. (New Taipei, Taiwan); host or cells: chemical synthesis
Experimental: To prepare the 10 μM Aβ peptide working solution, commercial Aβ peptide was first weighted and dissolved in HFIP to 1 mM. Next, the solvent was evaporated in a hood and then re-dissolved using 100 μL of 60 mM NaOH. It was then diluted to 10 μM working solutions with 50 mM phosphate buffer (pH 7.4, containing 150 mM sodium chloride and 1 mM EDTA), following previous reports. […] DMSO instead of the sample solution was used as the control. The 50 mM phosphate buffer was used instead of the Aβ working solution as the sample blank. […] The IC50 of the inhibition against the Aβ aggregation of PIC and its analogs was calculated from each linear equation using three test concentrations and their inhibition capacities.

[6] = test system: SH-SY5Y cells; assay: Neuroprotection against Aβ peptide (25–35)-induced cell deaths (MTT); assay type: cell-based, human; conditions: pre-treatment 1, 2 and 10 μM for 24 h, then 40 μg/mL Aβ (25–35) 24 h; vs control p < 0.05
Experimental: The human SH-SY5Y neuroblastoma cell lines (CRL-2266, Lot No. 58979771) were purchased from American Type Culture Collection (Manassas, VA, USA) and used as models to investigate PIC and its analogs for neuroprotective activities against Aβ-induced cell deaths and the stimulation of neurite outgrowths. The SH-SY5Y cells were grown in DMEM/F-12 medium supplemented with 10% FBS at 37 °C under a humidified atmosphere and 5% CO2 [41]. […]. The SH-SY5Y cells (10,000 cells/well) were seeded and cultured in a DMEM/F-12 medium containing 10% FBS for 24 h at 37 °C under a humidified atmosphere and 5% CO2. […] The medium was then removed, and 40 μg/mL Aβ peptide (25–35) (dissolved in PBS) or an equal aliquot of PBS was added to the medium for another 24 h culture. The MTT was used to evaluate cell viability, and the absorbance at 570 nm was determined. The DMSO used instead of the sample solution was blank (recognized as 100%), and each treatment was expressed as relative cell viability (%). To study the stimulation of neurite outgrowth, the SH-SY5Y cells (5000 cells/well) were seeded on a 96-well plate pre-coated with poly-L-lysine and then cultured in the DMEM/F-12 medium containing 10% FBS overnight at 37 °C under a humidified atmosphere and 5% CO2. After being removed from the culture medium, each PIC, GNT, RHA, and isoRHA (at a final concentration of 10 μM in the 0.1%DMSO) or 0.1% DMSO (the control) was added to the DMEM/F-12 medium containing 10% FBS and refreshed every three days. On day 3 and day 6, each of the culture plates was photographed using an inverted microscope (ECLIPSE TS100, Nikon Instruments Inc., Tokyo, Japan). The culture medium was removed and washed with PBS, and the cultured cells in each well were fixed with 4% paraformaldehyde. To measure cell viability and quantify the neurite outgrowths of the treated SH-SY5Y in a 96-well plate, the neurite outgrowth staining kit (a two-color fluorescence assay kit) was used, following a previous report or the protocol in the manufacturer’s manual (publication number: MAN0007224), which included a cell membrane-stained fluorescent dye (orange-red fluorescence), a cell viability indicator (green fluorescence), and a reagent for background masking. The fluorescence ratios of Ex555nm/Em565nm and Ex495nm/Em515nm were determined for the neurite outgrowths and the cell viabilities, respectively. The value for the control was recognized as 100%, and each treatment was expressed relative to the control.

[7] = biological target: T2, recombinant human AChE (Homo sapiens, UniProt P22303); assay: AChE inhibitory activity in vitro (acetylthiocholine/DTNB); assay type: biochemical
T2 construct: purchased R&D Systems Inc. (Minneapolis, MN, USA)
Experimental: Commercially synthesized acetylthiocholine iodide was hydrolyzed using AChE to release thiocholine, which was coupled with DTNB to generate the yellowish 5-thio-2-nitrobenzoate for in vitro AChE activity assays. For the AChE inhibitory activity assay, each analog was dissolved in the DMSO, and final concentrations of 100, 200, and 500 μM were used for comparisons. An equal volume of DMSO instead of the sample solution was used in the blank group and expressed as 100% AChE activity. […] AChE inhibition (%) was calculated as follows: [(A405blank − A405sample)/(A405blank)] × 100%.

[8] = cited from earlier work
[9] = oral administration to rats; cited from earlier work
[10] = rats, cited from earlier work
[11] = test system: mild to moderate AD patients; conditions: human trial, 52 weeks, cited from earlier work
[12] = read-out: Cmax of metabolite; after intravenous PIC 90 μmole/kg (21.98 mg/kg), SD rats; cited from earlier work
[13] = test system: scopolamine-induced amnesiac ICR mice; conditions: pre-treatment 40 mg/kg; cited from earlier work
[14] = test system: early Alzheimer’s; conditions: 18-month phase-3 trial; cited from earlier work
[15] = 500 mg once daily up to 1000 mg twice daily

T2 sequence (P22303 32-614): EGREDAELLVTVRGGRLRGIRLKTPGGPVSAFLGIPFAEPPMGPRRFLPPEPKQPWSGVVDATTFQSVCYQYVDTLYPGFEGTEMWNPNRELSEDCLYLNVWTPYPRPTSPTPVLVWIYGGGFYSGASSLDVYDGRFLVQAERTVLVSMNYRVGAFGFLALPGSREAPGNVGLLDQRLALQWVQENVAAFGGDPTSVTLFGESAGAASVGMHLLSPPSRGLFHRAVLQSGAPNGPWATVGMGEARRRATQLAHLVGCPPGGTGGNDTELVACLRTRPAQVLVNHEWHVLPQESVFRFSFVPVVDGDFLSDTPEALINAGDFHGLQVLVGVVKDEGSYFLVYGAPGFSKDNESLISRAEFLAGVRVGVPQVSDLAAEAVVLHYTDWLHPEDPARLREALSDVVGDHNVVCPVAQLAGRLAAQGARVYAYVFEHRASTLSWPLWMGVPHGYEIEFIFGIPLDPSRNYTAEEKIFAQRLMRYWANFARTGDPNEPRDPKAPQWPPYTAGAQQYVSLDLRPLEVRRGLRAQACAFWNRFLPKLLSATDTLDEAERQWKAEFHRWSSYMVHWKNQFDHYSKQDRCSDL
T1 sequence (P05067 672-713): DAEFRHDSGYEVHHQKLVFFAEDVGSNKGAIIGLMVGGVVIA

## Oc1cc(O)cc(C=Cc2c(O)cccc2O)c1 [GNT, 3,5,2′,6′-tetrahydroxystilbene]
[1]
  cytotoxicity on SH-SY5Y cells: insignificant cytotoxicity
[2]
  IC50: 97 µM
[3]
  viability at 10 µM: 80%
[4]
  stimulation of neurite outgrowths: not PIC nor GNT; also recorded: not PIC and GNT
[5]
  IC50: 1.76 µM
[6]
  neuroprotection: cell viability against Aβ peptide (25–35)-induced cell deaths: elevated cell viabilities
[7]
  IC50: 276 µM

## OC[C@H]1O[C@@H](Oc2cc(/C=C/c3cc(O)cc(O)c3)ccc2O)[C@H](O)[C@@H](O)[C@@H]1O [piceatannol-3′-O-β-D-glucopyranoside]
[8]
  crossing of the BBB: reported to cross the BBB

## Oc1ccc(C=Cc2cc(O)cc(O)c2)cc1 [RSV, 3,5,4′-trihydroxystilbene]
[1]
  cytotoxicity on SH-SY5Y cells: insignificant cytotoxicity
[6]
  neuroprotection: cell viability against Aβ peptide (25–35)-induced cell deaths: elevated cell viabilities
[9]
  bioavailability: 29.8%
  half-life: 1.48 h
[10]; co-administration of PIC and RSV, each at 180 μmol/kg
  AUC0–8h in plasma, intact compound: 4.1 µM·h
[10]; intragastric, 90 μmol/kg
  AUC0–8h in plasma, intact compound: 2.0 µM·h
[10]; intragastric, 180 μmol/kg
  AUC0–8h in plasma, intact compound: 4.7 µM·h
[10]; intragastric, 360 μmol/kg
  AUC0–8h in plasma, intact compound: 8.6 µM·h
[11]; [15]
  crossing of the blood–brain barrier: could cross the blood–brain barrier
  safety and tolerance: safe and had good tolerance with adverse effects of nausea, diarrhea, and weight loss
[11]
  Aβ42 and Aβ40 levels in the cerebrospinal fluid: reduced

## COc1cc(C=Cc2cc(O)cc(O)c2)ccc1O [isoRHA, 3,5,4′-trihydroxy-3′-methoxystilbene]
[2]
  IC50: 72.9 µM
[12]
  Cmax: 5.08 ± 0.31 µM
[3]; SH-SY5Y neuroblastoma cells
  viability at 10 µM: 80%
[4]
  stimulation of neurite outgrowths: stimulate neurite outgrowths; also recorded: showed stimulated activities toward neurite outgrowths; also recorded: showed stimulatory activity in neurite outgrowths
  total neurite lengths in living SH-SY5Y cells, fold of the control: 1.375 fold
[5]; 10 μM Aβ working solution, ThT, 37 °C, 24 h, read-out: IC50 of the anti-Aβ peptide (1–42) aggregation
  IC50: 1.94 µM
[6]
  neuroprotection: cell viability against Aβ peptide (25–35)-induced cell deaths: elevated cell viabilities
[7]; calculated from 100, 200, 500 μM, read-out: IC50 of the anti-AChE activity
  IC50: 322 µM

## COc1ccc(/C=C/c2cc(O)cc(O)c2)cc1O [RHA, 3,5,3′-trihydroxy-4′-methoxystilbene]
[2]
  IC50: 57.8 µM
[3]; SH-SY5Y neuroblastoma cells
  viability at 10 µM: 80%
[4]
  stimulation of neurite outgrowths: stimulate neurite outgrowths; also recorded: showed stimulated activities toward neurite outgrowths; also recorded: showed stimulatory activity in neurite outgrowths
  total neurite lengths in living SH-SY5Y cells, fold of the control: 1.375 fold
[5]
  IC50: 2.93 µM
[6]
  neuroprotection: cell viability against Aβ peptide (25–35)-induced cell deaths: elevated cell viabilities
[7]
  IC50: 322 µM

## Oc1ccc([C@H]2c3c(O)cc(O)cc3[C@H]3c4c(cc(O)cc4[C@@H]2c2cc(/C=C/c4cc(O)cc5c4[C@H](c4cc(O)cc(O)c4)[C@@H](c4ccc(O)cc4)O5)ccc2O)O[C@@H]3c2ccc(O)cc2)cc1 [vitisin A]
[13]
  learning and memory functions via the passive avoidance test: improved learning and memory functions

B1: lecanemab (antibody, chains of the INN, looked up, V domains shown)
VH: EVQLVESGGGLVQPGGSLRLSCSASGFTFSSFGMHWVRQAPGKGLEWVAYISSGSSTIYYGDTVKGRFTISRDNAKNSLFLQMSSLRAEDTAVYYCAREGGYYYGRSYYTMDYWGQGTTVTVSS
VL: DVVMTQSPLSLPVTPGAPASISCRSSQSIVHSNGNTYLEWYLQKPGQSPKLLIYKVSNRFSGVPDRFSGSGSGTDFTLRISRVEAEDVGIYYCFQGSHVPPTFGPGTKLEIK
[14]
  less decline in measures of cognition and function as compared to a placebo: 25%
